Data taken from patent publication US7294637B2 (Sepracor, Inc., priority 2000, dated 2007).
Read-outs that look alike come from different tables or passages of the source.

What was measured:
[1] = target: norepinephrine transporter (Homo sapiens, UniProt P23975); assay: NE uptake: displacement of norephinephrine ligands in vitro (methods of Galli et al.); type: binding
serotonin transporter = serotonin transporter (Homo sapiens, UniProt P31645); assay: 5-HT uptake: displacement of serotonin ligands in vitro (methods of Gu et al.); type: binding
dopamine transporter = dopamine transporter (Homo sapiens, UniProt Q01959); assay: DA uptake: displacement of dopamine ligands in vitro (methods of Gu et al.)
[2] = NE Uptake, Uptake Profile (IC50, nM)
[3] = 5-HT Uptake, Uptake Profile (IC50, nM)
[4] = DA Uptake, Uptake Profile (IC50, nM), displacement of dopamine ligands in vitro
[5] = displacement of serotonin ligands in vitro, read-out: 5-HT Uptake, Uptake Profile (IC50)
[6] = read-out: NE Uptake, Uptake Profile (IC50)

Chain of serotonin transporter (P31645 whole entry): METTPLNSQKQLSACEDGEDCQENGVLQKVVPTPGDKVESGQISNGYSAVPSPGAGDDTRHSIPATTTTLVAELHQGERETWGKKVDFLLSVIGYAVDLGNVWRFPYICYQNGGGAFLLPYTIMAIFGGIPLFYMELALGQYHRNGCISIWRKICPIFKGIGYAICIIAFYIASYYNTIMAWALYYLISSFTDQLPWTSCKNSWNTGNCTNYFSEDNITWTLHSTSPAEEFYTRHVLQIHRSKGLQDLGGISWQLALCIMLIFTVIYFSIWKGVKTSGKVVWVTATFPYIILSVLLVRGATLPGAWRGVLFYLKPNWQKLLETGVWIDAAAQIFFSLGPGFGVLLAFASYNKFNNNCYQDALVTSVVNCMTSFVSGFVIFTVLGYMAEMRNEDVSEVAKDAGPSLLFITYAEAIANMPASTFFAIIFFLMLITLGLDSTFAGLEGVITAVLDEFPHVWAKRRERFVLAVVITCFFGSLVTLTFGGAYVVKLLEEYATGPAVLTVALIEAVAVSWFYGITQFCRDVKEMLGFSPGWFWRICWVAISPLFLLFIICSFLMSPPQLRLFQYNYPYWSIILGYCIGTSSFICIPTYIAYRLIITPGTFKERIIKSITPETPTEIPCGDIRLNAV
Chain of norepinephrine transporter (P23975 whole entry): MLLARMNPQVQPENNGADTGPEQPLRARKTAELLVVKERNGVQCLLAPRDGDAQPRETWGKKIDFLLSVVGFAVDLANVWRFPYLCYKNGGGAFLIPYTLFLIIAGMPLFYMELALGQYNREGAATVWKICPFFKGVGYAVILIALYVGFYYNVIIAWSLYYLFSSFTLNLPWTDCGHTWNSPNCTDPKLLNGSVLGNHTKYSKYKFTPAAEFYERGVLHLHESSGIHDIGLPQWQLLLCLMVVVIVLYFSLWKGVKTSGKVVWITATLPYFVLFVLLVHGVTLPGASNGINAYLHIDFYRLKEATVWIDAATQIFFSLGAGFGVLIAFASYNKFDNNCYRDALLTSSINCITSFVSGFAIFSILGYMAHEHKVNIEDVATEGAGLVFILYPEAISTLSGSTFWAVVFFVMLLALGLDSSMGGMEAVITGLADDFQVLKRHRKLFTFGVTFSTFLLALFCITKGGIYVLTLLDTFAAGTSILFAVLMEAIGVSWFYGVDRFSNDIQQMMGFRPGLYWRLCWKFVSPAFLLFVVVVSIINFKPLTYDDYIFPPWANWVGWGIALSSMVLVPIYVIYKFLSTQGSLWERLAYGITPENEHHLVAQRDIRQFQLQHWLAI
Chain of dopamine transporter (Q01959 whole entry): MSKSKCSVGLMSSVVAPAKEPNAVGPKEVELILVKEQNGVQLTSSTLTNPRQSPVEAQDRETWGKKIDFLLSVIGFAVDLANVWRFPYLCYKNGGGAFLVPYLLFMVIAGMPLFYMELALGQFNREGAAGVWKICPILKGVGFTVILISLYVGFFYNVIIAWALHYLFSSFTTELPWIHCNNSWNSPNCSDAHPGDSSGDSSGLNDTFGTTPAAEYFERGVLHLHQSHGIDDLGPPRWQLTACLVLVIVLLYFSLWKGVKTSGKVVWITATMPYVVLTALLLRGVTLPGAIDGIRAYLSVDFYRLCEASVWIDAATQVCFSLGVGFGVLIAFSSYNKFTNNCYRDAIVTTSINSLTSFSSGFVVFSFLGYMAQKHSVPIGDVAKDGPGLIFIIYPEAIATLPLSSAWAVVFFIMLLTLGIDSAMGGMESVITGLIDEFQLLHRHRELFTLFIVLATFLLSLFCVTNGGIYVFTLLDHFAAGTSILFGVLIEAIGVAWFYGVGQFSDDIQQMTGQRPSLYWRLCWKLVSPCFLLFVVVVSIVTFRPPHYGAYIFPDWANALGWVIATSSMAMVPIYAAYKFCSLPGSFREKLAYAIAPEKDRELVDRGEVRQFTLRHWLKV

## FC(F)(F)c1ccc(OCC2CCCN(CCc3ccc(-c4ccccc4)cc3)C2)cc1 (stereo not drawn) [compound 181, 1-(2-Biphenyl-4-yl-ethyl)-3-(4-trifluoromethyl-phenoxymethyl)-piperidine]
[1]; [2]
  IC50: < 1000 nM
Serotonin transporter; [3]
  IC50: < 100 nM
Dopamine transporter; [4]
  IC50: > 1000 nM

## COc1ccc2[nH]cc(CCN3CCCC(COc4ccc(C(F)(F)F)cc4)C3)c2c1 (stereo not drawn) [compound 220, 5-Methoxy-3-{2-[3-(4-trifluoromethyl-phenoxymethyl)-piperidin-1-yl]-ethyl}-1H-indole]
[1]; [2]
  IC50: < 1000 nM
Serotonin transporter; [5]
  IC50: < 100 nM
Dopamine transporter; [4]
  IC50: < 1000 nM

## OC(CN1CCCC(CCc2ccc(C(F)(F)F)cc2)C1)C1(c2ccc(Cl)cc2)CCC1 (single isomer, unassigned) [compound 193, 1-[1-(4-Chloro-phenyl)-cyclobutyl]-2-{3-[2-(4-trifluoromethyl-phenyl)-ethyl]-piperidin-1-yl}-ethanol]
[1]; [2]
  IC50: < 10 nM
Serotonin transporter; [5]
  IC50: < 1000 nM
Dopamine transporter; [4]
  IC50: < 10 nM

## FC(F)(F)c1ccc(OCC2CCCN(CC3COc4ccccc4O3)C2)cc1 (single isomer, unassigned) [compound 179, 1-(2,3-Dihydro-benzo[1,4]dioxin-2-ylmethyl)-3-(4-trifluoromethyl-phenoxymethyl)-piperidine]
[1]; [2]
  IC50: < 1000 nM
Serotonin transporter; [5]
  IC50: < 1000 nM
Dopamine transporter; [4]
  IC50: > 1000 nM

## OC(CN1CCCC(COc2ccc(C(F)(F)F)cc2)C1)C1(c2ccc3c(c2)OCO3)CCC1 (stereo not drawn) [compound 165]
[1]; [2]
  IC50: < 100 nM
Serotonin transporter; [5]
  IC50: < 100 nM
Dopamine transporter; [4]
  IC50: < 10 nM

## OC(CN1CCCC(COc2ccc(C(F)(F)F)cc2)C1)c1c[nH]c2ccc(Cl)cc12 (stereo not drawn) [compound 222, 1-(5-Chloro-1H-indol-3-yl)-2-[3-(4-trifluoromethyl-phenoxymethyl)-piperidin-1-yl]-ethanol]
[1]; [2]
  IC50: > 1000 nM
Serotonin transporter; [5]
  IC50: < 1000 nM
Dopamine transporter; [4]
  IC50: > 1000 nM

## COc1ccc(C2(CN3CCC[C@H](COc4ccc(OC(F)(F)F)cc4)C3)CCC2)cc1 [compound 171, (S)-1-[1-(4-Methoxy-phenyl)-cyclobutylmethyl]-3-(4-trifluoromethoxy-phenoxymethyl)-piperidine]
[1]; [2]
  IC50: < 1000 nM
Serotonin transporter; [5]
  IC50: < 1000 nM
Dopamine transporter; [4]
  IC50: < 10 nM

## Clc1ccc(C2(CN3CCCC(CCc4ccccc4)C3)CCC2)cc1 (stereo not drawn) [compound 147, 1-[1-(4-Chloro-phenyl)-cyclobutylmethyl]-3-phenethyl-piperidine]
[1]; [2]
  IC50: < 100 nM
Serotonin transporter; [5]
  IC50: > 1000 nM
Dopamine transporter; [4]
  IC50: < 1000 nM

## OC(CN1CCCC(COc2ccc(C(F)(F)F)cc2)C1)C1(c2ccccc2OC(F)(F)F)CCC1 (single isomer, unassigned) [compound 228, 1-[1-(2-Trifluoromethoxy-phenyl)-cyclobutyl]-2-[3-(4-trifluoromethyl-phenoxymethyl)-piperidin-1-yl]-ethanol]
[1]; [6]
  IC50: > 1000 nM
Serotonin transporter; [5]
  IC50: > 1000 nM
Dopamine transporter; [4]
  IC50: > 1000 nM

## OC(CN1CCCC(CCc2ccc(C(F)(F)F)cc2)C1)C1(c2ccc(Cl)cc2)CCC1 (single isomer, unassigned) [compound 195, 1-[1-(4-Chloro-phenyl)-cyclobutyl]-2-{3-[2-(4-trifluoromethyl-phenyl)-ethyl]-piperidin-1-yl}-ethanol]
[1]; [2]
  IC50: < 1000 nM
Serotonin transporter; [5]
  IC50: < 1000 nM
Dopamine transporter; [4]
  IC50: < 100 nM

## OC(CN1CCCC(CCc2ccc(C(F)(F)F)cc2)C1)c1ccc(Cl)cc1 (single isomer, unassigned) [compound 154, 1-(4-Chloro-phenyl)-2-{3-[2-(4-trifluoromethyl-phenyl)-ethyl]-piperidin-1-yl}-ethanol]
[1]; [2]
  IC50: < 100 nM
Serotonin transporter; [5]
  IC50: < 10 nM
Dopamine transporter; [4]
  IC50: < 10 nM

## OC(CN1CCCC(CCc2ccc(OC(F)(F)F)cc2)C1)c1ccc(Cl)cc1 (stereo not drawn) [compound 201]
[1]; [2]
  IC50: < 1000 nM
Serotonin transporter; [5]
  IC50: < 1000 nM
Dopamine transporter; [4]
  IC50: < 10 nM

## COc1ccc(C2(CN3CCC[C@@H](COc4ccc(OC(F)(F)F)cc4)C3)CCC2)cc1 [compound 170, (R)-1-[1-(4-Methoxy-phenyl)-cyclobutylmethyl]-3-(4-trifluoromethoxy-phenoxymethyl)-piperidine]
[1]; [2]
  IC50: < 1000 nM
Serotonin transporter; [5]
  IC50: < 1000 nM
Dopamine transporter; [4]
  IC50: < 10 nM

## c1ccc(OCC2CCCN(CC3(c4ccccc4)CCC3)C2)cc1 (stereo not drawn) [compound 34, 3-Phenoxymethyl-1-(1-phenyl-cyclobutylmethyl)-piperidine]
[1]; [2]
  IC50: < 1000 nM
Serotonin transporter; [5]
  IC50: < 1000 nM
Dopamine transporter; [4]
  IC50: < 1000 nM

## OC(CN1CCCC(COc2ccc(OC(F)(F)F)cc2)C1)C1(c2ccc(Cl)cc2)CCC1 (stereo not drawn) [compound 210, 1-[1-(4-Chloro-phenyl)-cyclobutyl]-2-[3-(4-trifluoromethoxy-phenoxymethyl)-piperidin-1-yl]-ethanol]
[1]; [2]
  IC50: < 100 nM
Serotonin transporter; [5]
  IC50: < 1000 nM
Dopamine transporter; [4]
  IC50: < 10 nM

## OC(CN1CCCC(COc2ccc(OC(F)(F)F)cc2)C1)C1(c2ccc(OC(F)(F)F)cc2)CCC1 (stereo not drawn) [compound 212, 2-[3-(4-Trifluoromethoxy-phenoxymethyl)-piperidin-1-yl]-1-[1-(4-trifluoromethoxy-phenyl)-cyclobutyl]-ethanol]
[1]; [2]
  IC50: < 1000 nM
Serotonin transporter; [5]
  IC50: < 1000 nM
Dopamine transporter; [4]
  IC50: < 100 nM

## CNC(CN1CCC[C@@H](CCc2ccccc2)C1)c1ccc(Cl)cc1 (stereo partly drawn) [compound 213, [1-(4-Chloro-phenyl)-2-(3(R)-phenethyl-piperidin-1-yl)-ethyl]-methyl-amine]
[1]; [2]
  IC50: < 1000 nM
Serotonin transporter; [5]
  IC50: < 100 nM
Dopamine transporter; [4]
  IC50: < 1000 nM

## CC(CC1CCCN(CC2(c3ccc(Cl)cc3)CCC2)C1)c1ccccc1 (stereo in doubt) [compound 186, (S)-1-[1-(4-Chloro-phenyl)-cyclobutylmethyl]-3-(2-phenyl-propyl)-piperidine]
[1]; [2]
  IC50: < 1000 nM
Serotonin transporter; [5]
  IC50: < 1000 nM
Dopamine transporter; [4]
  IC50: < 1000 nM

## CO[C@@H](CN1CCC[C@H](COc2ccc(C(F)(F)F)cc2)C1)C1(c2ccc(Cl)cc2)CCC1 [compound 162]
[1]; [2]
  IC50: > 1000 nM
Serotonin transporter; [5]
  IC50: < 1000 nM
Dopamine transporter; [4]
  IC50: < 100 nM

## COC(CN1CCC[C@@H](CCc2ccccc2)C1)c1ccc(Cl)cc1 (stereo partly drawn) [compound 196, 1-[2-(4-Chloro-phenyl)-2-methoxy-ethyl]-3-(R)-phenethyl-piperidine]
[1]; [2]
  IC50: < 100 nM
Serotonin transporter; [5]
  IC50: < 10 nM
Dopamine transporter; [4]
  IC50: < 100 nM

## OC1CCCN(CC2(c3ccc(Cl)cc3)CCC2)C1 (stereo not drawn) [compound 89, 1-[1-(4-Chlorophenyl)cyclobutylmethyl]piperidin-3-ol]
[1]; [2]
  IC50: < 1000 nM
Serotonin transporter; [5]
  IC50: > 1000 nM
Dopamine transporter; [4]
  IC50: < 1000 nM

## CN(C)CC(Oc1ccc(C(F)(F)F)cc1)C1CCCN(C(=O)C2(c3ccc(Cl)cc3)CCC2)C1 (racemic) [compound 173]
[1]; [2]
  IC50: > 1000 nM
Serotonin transporter; [5]
  IC50: < 100 nM
Dopamine transporter; [4]
  IC50: > 1000 nM

## OC(CN1CCCC(CCc2ccc(C(F)(F)F)cc2)C1)c1ccc(Cl)cc1 (single isomer, unassigned) [compound 153, 1-(4-Chloro-phenyl)-2-{3-[2-(4-trifluoromethyl-phenyl)-ethyl]-piperidin-1-yl}-ethanol]
[1]; [2]
  IC50: < 100 nM
Serotonin transporter; [5]
  IC50: < 10 nM
Dopamine transporter; [4]
  IC50: < 100 nM

## O=C(CC1CCCN(CC2(c3ccc(Cl)cc3)CCC2)C1)c1ccccc1 (stereo in doubt) [compound 183, (S)-[2-{1-[1-(4-Chloro-phenyl)-cyclobutylmethyl]-piperidin-3-yl}-1-phenyl-ethanone]]
[1]; [2]
  IC50: < 1000 nM
Serotonin transporter; [5]
  IC50: < 1000 nM
Dopamine transporter; [4]
  IC50: < 1000 nM

## OC(CN1CCCC(COc2ccc(C(F)(F)F)cc2)C1)C1(c2ccc(Cl)cc2)CCC1 (stereo not drawn) [compound 24, 1-[1-(4-Chlorophenyl)cyclobutyl]-2-[3-(4-trifluoromethylphenoxymethyl)piperidin-1-yl]ethanol]
[1]; [2]
  IC50: < 10 nM
Serotonin transporter; [5]
  IC50: < 1000 nM
Dopamine transporter; [4]
  IC50: < 10 nM

## COc1ccc(OCC2CCCN(CC3(c4ccccc4)CCC3)C2)cc1 (stereo not drawn) [compound 55, 3-(4-Methoxy-phenoxymethyl)-1-(1-phenyl-cyclobutylmethyl)piperidine]
[1]; [2]
  IC50: > 1000 nM
Serotonin transporter; [5]
  IC50: > 1000 nM
Dopamine transporter; [4]
  IC50: < 1000 nM

## O=C(CN1CCC[C@@H](CCc2ccccc2)C1)c1ccc(Cl)cc1 [compound 145, (R)-1-(4-Chloro-phenyl)-2-(3-phenethyl-piperidin-1-yl)-ethanone]
[1]; [2]
  IC50: < 1000 nM
Serotonin transporter; [3]
  IC50: < 1000 nM
Dopamine transporter; [4]
  IC50: < 1000 nM

## OC(CN1CCCC(COc2ccc(C(F)(F)F)cc2)C1)C1(c2ccc(OC(F)(F)F)cc2)CCC1 (stereo not drawn) [compound 206, 1-[1-(4-Trifluoromethoxy-phenyl)-cyclobutyl]-2-[3-(4-trifluoromethyl-phenoxymethyl)-piperidin-1-yl]-ethanol]
[1]; [2]
  IC50: < 1000 nM
Serotonin transporter; [5]
  IC50: < 1000 nM
Dopamine transporter; [4]
  IC50: < 100 nM

## CN(C[C@@H]1CCCN(CC2(c3ccc(Cl)cc3)CCC2)C1)c1ccccc1 [compound 35, {1-[1-(4-Chloro-phenyl)-cyclobutylmethyl]-piperidin-3-R-ylmethyl}-methyl-phenyl-amine]
[1]; [6]
  IC50: > 1000 nM
Serotonin transporter; [5]
  IC50: > 1000 nM
Dopamine transporter
  IC50: > 1000 nM

## FC(F)(F)c1ccc(OCC2CCCN(CC3COc4ccccc4O3)C2)cc1 (single isomer, unassigned) [compound 176, 1-(2,3-Dihydro-benzo[1,4]dioxin-2-ylmethyl)-3-(4-trifluoromethyl-phenoxymethyl)-piperidine]
[1]; [2]
  IC50: > 1000 nM
Serotonin transporter; [5]
  IC50: < 1000 nM
Dopamine transporter; [4]
  IC50: < 1000 nM

## OC(CN1CCCC(CCc2ccccc2)C1)c1ccc(Cl)cc1 (stereo not drawn) [compound 140, 1-(4-Chloro-phenyl)-2-(3-phenethyl-piperidin-1-yl)-ethanol]
[1]; [2]
  IC50: < 100 nM
Serotonin transporter; [5]
  IC50: < 100 nM
Dopamine transporter; [4]
  IC50: < 100 nM

## OC(CN1CCCC(COc2ccc(C(F)(F)F)cc2)C1)(c1ccccc1)C1CCCCC1 (stereo not drawn) [compound 191, 1-Cyclohexyl-1-phenyl-2-[3-(4-trifluoromethyl-phenoxymethyl)-piperidin-1-yl]-ethanol]
[1]; [6]
  IC50: > 1000 nM
Serotonin transporter; [5]
  IC50: > 1000 nM
Dopamine transporter; [4]
  IC50: > 1000 nM

## COc1ccccc1C1(C(O)CN2CCCC(COc3ccc(C(F)(F)F)cc3)C2)CCC1 (stereo not drawn) [compound 164]
[1]; [2]
  IC50: < 1000 nM
Serotonin transporter; [5]
  IC50: < 100 nM
Dopamine transporter; [4]
  IC50: < 10 nM
